In US6936585B2, “Corticotropin releasing factor 2 receptor agonists” (priority 2002, dated 2005) one finds Emax and EC50 data, which are given here for six molecules.

One assay concerns the target T1, CRF2R (Homo sapiens, UniProt Q13324).
T1 sequence (Q13324 1-411): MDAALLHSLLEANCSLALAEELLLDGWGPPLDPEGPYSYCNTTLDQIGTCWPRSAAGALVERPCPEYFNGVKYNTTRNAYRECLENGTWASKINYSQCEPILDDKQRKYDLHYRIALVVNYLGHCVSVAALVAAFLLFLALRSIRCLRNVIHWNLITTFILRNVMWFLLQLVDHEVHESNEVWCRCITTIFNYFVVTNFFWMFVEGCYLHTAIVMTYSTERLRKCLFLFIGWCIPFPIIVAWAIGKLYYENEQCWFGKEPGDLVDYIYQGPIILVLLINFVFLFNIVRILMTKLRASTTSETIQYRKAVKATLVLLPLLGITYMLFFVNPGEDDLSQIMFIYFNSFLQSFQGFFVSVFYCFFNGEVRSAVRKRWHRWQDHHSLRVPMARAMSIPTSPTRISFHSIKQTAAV
As to the kind of experiment: CRF2R agonist activation (EC50 / Emax), called comparative CRF binding. The assay is classed as cell-based. To be noted: for Emax: read-out: CRF2R Emax. The method, boiled down: (§1)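 Read-out is Gαs-driven cAMP induction, quantified directly in lysates or through CRE-reporter gene expression, after treating CRF1R- or CRF2R-expressing cells with peptide. Vehicle-treated cells serve as the comparison.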

A further assay deals with T2, CRF1R (Homo sapiens, UniProt P34998).
T2 sequence (P34998 24-415): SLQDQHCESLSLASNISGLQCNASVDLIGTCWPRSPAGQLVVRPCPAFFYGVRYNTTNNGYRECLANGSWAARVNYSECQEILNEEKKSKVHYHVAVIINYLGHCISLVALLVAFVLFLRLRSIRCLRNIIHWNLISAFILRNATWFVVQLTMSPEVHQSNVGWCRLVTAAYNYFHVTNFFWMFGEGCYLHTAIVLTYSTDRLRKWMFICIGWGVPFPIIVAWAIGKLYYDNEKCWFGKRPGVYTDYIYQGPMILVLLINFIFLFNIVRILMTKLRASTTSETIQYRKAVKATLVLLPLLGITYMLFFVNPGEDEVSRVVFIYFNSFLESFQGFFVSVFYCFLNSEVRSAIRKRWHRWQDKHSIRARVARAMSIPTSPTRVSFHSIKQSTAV
As to the kind of experiment: CRF1R agonist activation (EC50 / Emax), called comparative CRF binding. In kind it is cell-based. To be noted: for Emax: read-out: CRF1R Emax. Put shortly:
as §1

Read-outs that look alike come from different tables or passages of the source. Peptide text beside a SMILES is read from it.

For orientation: Emax means the size of the effect at its maximum, as opposed to the concentration needed. By EC50 is commonly meant the concentration giving half of the maximal effect.

For the molecule `CC[C@H](C)[C@H](N)C(=O)N[C@H](C(=O)N[C@@H](CC(C)C)C(=O)N[C@@H](CO)C(=O)N[C@@H](CC(C)C)C(=O)N[C@@H](CC(=O)O)C(=O)N[C@H](C(=O)N1CCC[C@H]1C(=O)N[C@H](C(=O)NCC(=O)N[C@@H](CC(C)C)C(=O)N[C@@H](CC(C)C)C(=O)N[C@@H](CCC(N)=O)C(=O)N[C@@H](CCCCN)C(=O)N[C@H](C(=O)N[C@H](C(=O)N[C@@H](CCC(=O)O)C(=O)N[C@H](C(=O)N[C@@H](CCC(=O)O)C(=O)N[C@@H](CCCCN)C(=O)N[C@@H](CCC(N)=O)C(=O)N[C@@H](CCC(=O)O)C(=O)N[C@@H](CCCCN)C(=O)N[C@@H](CCC(=O)O)C(=O)N[C@@H](CCCCN)C(=O)N[C@@H](CCC(N)=O)C(=O)N[C@@H](CCC(N)=O)C(=O)N[C@@H](C)C(=O)N[C@H](C(=O)N[C@H](C(=O)N[C@@H](CC(N)=O)C(=O)N[C@@H](C)C(=O)N[C@@H](CCCNC(=N)N)C(=O)N[C@H](C(=O)N[C@@H](CC(C)C)C(=O)N[C@@H](C)C(=O)N[C@@H](CCCNC(=N)N)C(=O)N[C@H](C(N)=O)C(C)C)[C@@H](C)CC)[C@@H](C)O)[C@@H](C)O)[C@@H](C)CC)[C@@H](C)CC)C(C)C)[C@@H](C)CC)C(C)C)C(C)C` [compound 300] (H-IVLSLDVPIGLLQKVIEIEKQEKEKQQATTNARILARV-NH2; N-terminus assumed), the maximal effect (Emax) came out at 100% at CRF2R and 7.95% on CRF1R.
Turning to `CC[C@H](C)[C@H](N)C(=O)N[C@H](C(=O)N[C@@H](CC(C)C)C(=O)N[C@@H](CO)C(=O)N[C@@H](CC(C)C)C(=O)N[C@@H](CC(=O)O)C(=O)N[C@H](C(=O)N1CCC[C@H]1C(=O)N[C@H](C(=O)NCC(=O)N[C@@H](CC(C)C)C(=O)N[C@@H](CC(C)C)C(=O)N[C@@H](CCC(N)=O)C(=O)N[C@@H](CCCCN)C(=O)N[C@@H](CCSC)C(=O)N[C@H](C(=O)N[C@@H](CCC(=O)O)C(=O)N[C@H](C(=O)N[C@@H](CCC(=O)O)C(=O)N[C@@H](CCCCN)C(=O)N[C@@H](CCC(N)=O)C(=O)N[C@@H](CCC(=O)O)C(=O)N[C@@H](CCCCN)C(=O)N[C@@H](CCC(=O)O)C(=O)N[C@@H](CCCCN)C(=O)N[C@@H](CCC(N)=O)C(=O)N[C@@H](CCC(N)=O)C(=O)N[C@@H](C)C(=O)N[C@H](C(=O)N[C@H](C(=O)N[C@@H](CC(N)=O)C(=O)N[C@@H](C)C(=O)N[C@@H](CCCNC(=N)N)C(=O)N[C@H](C(=O)N[C@@H](CC(C)C)C(=O)N[C@@H](C)C(=O)N[C@@H](CCCNC(=N)N)C(=O)N[C@H](C(N)=O)C(C)C)[C@@H](C)CC)[C@@H](C)O)[C@@H](C)O)[C@@H](C)CC)[C@@H](C)CC)[C@@H](C)CC)C(C)C)C(C)C` [compound 322] (H-IVLSLDVPIGLLQKMIEIEKQEKEKQQATTNARILARV-NH2; N-terminus assumed), the EC50 at CRF2R is 23.1 nM; at CRF1R (CRF1R EC50) it was not below 1000 nM. For the same molecule, the values for the Emax on CRF2R and at CRF1R were 96.5% and 10.7%, respectively.
Regarding `CC[C@H](C)[C@H](NC(=O)[C@H](CCC(=O)O)NC(=O)[C@H](C)NC(=O)[C@H](CC(N)=O)NC(=O)[C@H](CCC(N)=O)NC(=O)[C@H](CCC(=O)O)NC(=O)[C@H](C)NC(=O)[C@H](CCCNC(=N)N)NC(=O)[C@H](CCC(=O)O)NC(=O)[C@H](CCCNC(=N)N)NC(=O)[C@H](CCC(N)=O)NC(=O)[C@H](CO)NC(=O)[C@H](CCC(N)=O)NC(=O)[C@@H](NC(=O)[C@H](CCCCN)NC(=O)[C@H](CCC(=O)O)NC(=O)[C@H](CC(C)C)NC(=O)[C@H](CCC(=O)O)NC(=O)[C@H](CC(C)C)NC(=O)[C@H](CC(C)C)NC(=O)[C@@H](NC(=O)[C@H](CCCNC(=N)N)NC(=O)[C@H](CC(C)C)NC(=O)[C@H](CC(C)C)NC(=O)[C@H](CC(C)C)NC(=O)[C@H](CC(C)C)NC(=O)[C@@H]1CCCN1C(=O)[C@H](CC(C)C)NC(=O)[C@H](CC(=O)O)NC(=O)[C@@H](NC(=O)[C@H](CO)NC(=O)[C@H](CC(C)C)NC(=O)[C@H](CO)NC(=O)[C@@H]1CCCN1C(=O)[C@H](CC(N)=O)NC(=O)[C@@H](N)CC(=O)O)[C@@H](C)CC)[C@@H](C)O)[C@@H](C)O)C(=O)N[C@@H](Cc1ccccc1)C(=O)N[C@@H](C)C(=O)N[C@@H](CCC(=O)O)C(=O)N[C@H](C(N)=O)C(C)C` [compound 323] (H-DNPSLSIDLPLLLLRTLLELEKTQSQRERAEQNAEIFAEV-NH2; N-terminus assumed), the Emax at CRF2R was 100%; on CRF1R it was 36.9%.
In the case of `CC[C@H](C)[C@H](NC(=O)[C@H](CCC(N)=O)NC(=O)[C@H](C)NC(=O)[C@H](CC(N)=O)NC(=O)[C@H](CCC(N)=O)NC(=O)[C@H](CCC(=O)O)NC(=O)[C@H](C)NC(=O)[C@H](CCCNC(=N)N)NC(=O)[C@H](CCC(=O)O)NC(=O)[C@H](CCCNC(=N)N)NC(=O)[C@H](CCC(N)=O)NC(=O)[C@H](CO)NC(=O)[C@H](CCC(N)=O)NC(=O)[C@@H](NC(=O)[C@H](CCCCN)NC(=O)[C@H](CCC(=O)O)NC(=O)[C@H](CC(C)C)NC(=O)[C@H](CCC(=O)O)NC(=O)[C@H](CC(C)C)NC(=O)[C@H](CC(C)C)NC(=O)[C@@H](NC(=O)[C@H](CCCNC(=N)N)NC(=O)[C@H](CC(C)C)NC(=O)[C@H](CC(C)C)NC(=O)[C@H](CC(C)C)NC(=O)[C@H](CC(C)C)NC(=O)[C@@H]1CCCN1C(=O)[C@H](CC(C)C)NC(=O)[C@H](CC(=O)O)NC(=O)[C@@H](NC(=O)[C@H](CO)NC(=O)[C@H](CC(C)C)NC(=O)[C@H](CO)NC(=O)[C@@H]1CCCN1C(=O)[C@H](CC(N)=O)NC(=O)[C@@H](N)CC(=O)O)[C@@H](C)CC)[C@@H](C)O)[C@@H](C)O)C(=O)N[C@@H](Cc1ccccc1)C(=O)N[C@@H](C)C(=O)N[C@@H](Cc1c[nH]cn1)C(=O)N[C@H](C(N)=O)C(C)C` [compound 324] (H-DNPSLSIDLPLLLLRTLLELEKTQSQRERAEQNAQIFAHV-NH2; N-terminus assumed), the concentration for a half-maximal effect (EC50) at CRF2R (read-out: CRF2R EC50) was 17.2 nM; at CRF1R (read-out: CRF1R EC50), not below 1000 nM. Also, the maximal response (Emax) at CRF2R is 100%; on CRF1R it was 46.6%.
In the case of `CC[C@H](C)[C@H](NC(=O)[C@H](CC(N)=O)NC(=O)[C@H](C)NC(=O)[C@H](CC(N)=O)NC(=O)[C@H](CCC(N)=O)NC(=O)[C@H](CCC(=O)O)NC(=O)[C@H](C)NC(=O)[C@H](CCCNC(=N)N)NC(=O)[C@H](CCC(=O)O)NC(=O)[C@H](CCCNC(=N)N)NC(=O)[C@H](CCC(N)=O)NC(=O)[C@H](CO)NC(=O)[C@H](CCC(N)=O)NC(=O)[C@@H](NC(=O)[C@H](CCCCN)NC(=O)[C@H](CCC(=O)O)NC(=O)[C@H](CC(C)C)NC(=O)[C@H](CCC(=O)O)NC(=O)[C@H](CC(C)C)NC(=O)[C@H](CC(C)C)NC(=O)[C@@H](NC(=O)[C@H](CCCNC(=N)N)NC(=O)[C@H](CC(C)C)NC(=O)[C@H](CC(C)C)NC(=O)[C@H](CC(C)C)NC(=O)[C@H](CC(C)C)NC(=O)[C@@H]1CCCN1C(=O)[C@H](CC(C)C)NC(=O)[C@H](CC(=O)O)NC(=O)[C@@H](NC(=O)[C@H](CO)NC(=O)[C@H](CC(C)C)NC(=O)[C@H](CO)NC(=O)[C@@H]1CCCN1C(=O)[C@H](CC(N)=O)NC(=O)[C@@H](N)CC(=O)O)[C@@H](C)CC)[C@@H](C)O)[C@@H](C)O)C(=O)N[C@@H](Cc1ccccc1)C(=O)N[C@@H](C)C(=O)N[C@@H](CC(N)=O)C(=O)N[C@H](C(N)=O)C(C)C` [compound 326] (H-DNPSLSIDLPLLLLRTLLELEKTQSQRERAEQNANIFANV-NH2; N-terminus assumed), the figures for the EC50 on CRF2R (read-out: CRF2R EC50) and at CRF1R (read-out: CRF1R EC50) were 33.7 nM and not below 1000 nM, respectively. For the same molecule, the maximum response (Emax) stood at 100% on CRF2R and 30.1% on CRF1R.
With `CC[C@H](C)[C@H](NC(=O)[C@H](CCC(N)=O)NC(=O)[C@H](C)NC(=O)[C@H](CC(N)=O)NC(=O)[C@H](CCC(N)=O)NC(=O)[C@H](CCC(=O)O)NC(=O)[C@H](C)NC(=O)[C@H](CCCNC(=N)N)NC(=O)[C@H](CCC(=O)O)NC(=O)[C@H](CCCNC(=N)N)NC(=O)[C@H](CCC(N)=O)NC(=O)[C@H](CO)NC(=O)[C@H](CCC(N)=O)NC(=O)[C@@H](NC(=O)[C@H](CCCCN)NC(=O)[C@H](CCC(=O)O)NC(=O)[C@H](CC(C)C)NC(=O)[C@H](CCC(=O)O)NC(=O)[C@H](CC(C)C)NC(=O)[C@H](CC(C)C)NC(=O)[C@@H](NC(=O)[C@H](CCCNC(=N)N)NC(=O)[C@H](CC(C)C)NC(=O)[C@H](CC(C)C)NC(=O)[C@H](CC(C)C)NC(=O)[C@H](CC(C)C)NC(=O)[C@@H]1CCCN1C(=O)[C@H](CC(C)C)NC(=O)[C@H](CC(=O)O)NC(=O)[C@@H](NC(=O)[C@H](CO)NC(=O)[C@H](CC(C)C)NC(=O)[C@H](CO)NC(=O)[C@@H]1CCCN1C(=O)[C@H](CC(N)=O)NC(=O)[C@@H](N)CC(=O)O)[C@@H](C)CC)[C@@H](C)O)[C@@H](C)O)C(=O)N[C@@H](Cc1ccccc1)C(=O)N[C@@H](C)C(=O)N[C@@H](CCC(N)=O)C(=O)N[C@H](C(N)=O)C(C)C` [compound 327] (H-DNPSLSIDLPLLLLRTLLELEKTQSQRERAEQNAQIFAQV-NH2; N-terminus assumed), the maximal response (Emax) was found to be 100% at CRF2R and 36.5% at CRF1R.
